Assay results published in patent US9475775B2, “Benzazepine dicarboxamide compounds” (Hoffmann-La Roche Inc., priority 2015, dated 2016).
pEC50: −log10 of the molar value.

Legend:
[1] = biological target: human TLR8 (Homo sapiens (Human), UniProt Q9NR97); assay: HEK-Blue human TLR8 cells, NF-κB SEAP reporter assay; type: cell-based; settings: stimulation for 20 hours
From the text: (§1) For TLR8 and TLR7 activity testing, HEK-Blue human TLR8 or TLR7 cells (Invivogen, San Diego, Calif., USA) are used, respectively. These cells are designed for studying the stimulation of human TLR8 or TLR7 by monitoring the activation of NF-κB. A SEAP (secreted embryonic alkaline phosphatase) reporter gene is placed under the control of the IFN-b minimal promoter fused to five NF-κB and AP-1-binding sites. Therefore the reporter expression is regulated by the NF-κB promoter upon stimulation of human TLR8 or TLR7 for 20 hours. The cell culture supernatant SEAP reporter activity was determined using Quanti Blue kit (Invivogen, San Diego, Ca, USA) at a wavelength of 640 nm, a detection medium that turns purple/blue in the presence of alkaline phosphatase. EC50 values were determined using Activity Base analysis (ID Business Solution, Limited).

[2] = biological target: human TLR7 (Homo sapiens (Human), UniProt Q9NYK1); assay: HEK-Blue human TLR7 cells, NF-κB SEAP reporter assay; type: cell-based; settings: stimulation for 20 hours
Chain of human TLR7 (Q9NYK1 27-1049): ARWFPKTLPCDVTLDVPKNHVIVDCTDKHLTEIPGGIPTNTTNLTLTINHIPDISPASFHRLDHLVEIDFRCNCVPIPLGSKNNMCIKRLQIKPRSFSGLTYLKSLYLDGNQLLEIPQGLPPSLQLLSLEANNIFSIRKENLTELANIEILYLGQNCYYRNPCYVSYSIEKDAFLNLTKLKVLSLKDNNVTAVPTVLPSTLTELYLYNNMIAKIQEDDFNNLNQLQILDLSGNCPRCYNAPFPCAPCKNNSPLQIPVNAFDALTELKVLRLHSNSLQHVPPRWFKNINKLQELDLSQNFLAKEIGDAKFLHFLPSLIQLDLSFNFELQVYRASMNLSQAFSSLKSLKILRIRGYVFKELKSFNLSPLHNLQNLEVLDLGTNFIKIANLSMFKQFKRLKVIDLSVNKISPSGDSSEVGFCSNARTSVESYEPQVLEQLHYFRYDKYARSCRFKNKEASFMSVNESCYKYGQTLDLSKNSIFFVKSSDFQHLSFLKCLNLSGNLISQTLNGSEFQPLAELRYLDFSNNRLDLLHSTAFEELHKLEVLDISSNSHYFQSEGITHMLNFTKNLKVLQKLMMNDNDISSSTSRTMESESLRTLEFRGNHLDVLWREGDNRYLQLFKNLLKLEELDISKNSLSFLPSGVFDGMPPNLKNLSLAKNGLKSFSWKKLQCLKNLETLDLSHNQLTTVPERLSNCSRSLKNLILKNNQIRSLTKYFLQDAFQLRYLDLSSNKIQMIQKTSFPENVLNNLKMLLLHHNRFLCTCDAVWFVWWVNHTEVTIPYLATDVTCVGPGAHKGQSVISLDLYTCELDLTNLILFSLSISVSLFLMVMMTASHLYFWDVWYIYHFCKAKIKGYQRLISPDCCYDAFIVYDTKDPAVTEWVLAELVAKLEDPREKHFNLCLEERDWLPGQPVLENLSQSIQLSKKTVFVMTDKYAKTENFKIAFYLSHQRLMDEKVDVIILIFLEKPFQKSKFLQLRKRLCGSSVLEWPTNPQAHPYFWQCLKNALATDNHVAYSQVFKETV
From the text: as §1

Chain of human TLR8 (Q9NR97 27-1041): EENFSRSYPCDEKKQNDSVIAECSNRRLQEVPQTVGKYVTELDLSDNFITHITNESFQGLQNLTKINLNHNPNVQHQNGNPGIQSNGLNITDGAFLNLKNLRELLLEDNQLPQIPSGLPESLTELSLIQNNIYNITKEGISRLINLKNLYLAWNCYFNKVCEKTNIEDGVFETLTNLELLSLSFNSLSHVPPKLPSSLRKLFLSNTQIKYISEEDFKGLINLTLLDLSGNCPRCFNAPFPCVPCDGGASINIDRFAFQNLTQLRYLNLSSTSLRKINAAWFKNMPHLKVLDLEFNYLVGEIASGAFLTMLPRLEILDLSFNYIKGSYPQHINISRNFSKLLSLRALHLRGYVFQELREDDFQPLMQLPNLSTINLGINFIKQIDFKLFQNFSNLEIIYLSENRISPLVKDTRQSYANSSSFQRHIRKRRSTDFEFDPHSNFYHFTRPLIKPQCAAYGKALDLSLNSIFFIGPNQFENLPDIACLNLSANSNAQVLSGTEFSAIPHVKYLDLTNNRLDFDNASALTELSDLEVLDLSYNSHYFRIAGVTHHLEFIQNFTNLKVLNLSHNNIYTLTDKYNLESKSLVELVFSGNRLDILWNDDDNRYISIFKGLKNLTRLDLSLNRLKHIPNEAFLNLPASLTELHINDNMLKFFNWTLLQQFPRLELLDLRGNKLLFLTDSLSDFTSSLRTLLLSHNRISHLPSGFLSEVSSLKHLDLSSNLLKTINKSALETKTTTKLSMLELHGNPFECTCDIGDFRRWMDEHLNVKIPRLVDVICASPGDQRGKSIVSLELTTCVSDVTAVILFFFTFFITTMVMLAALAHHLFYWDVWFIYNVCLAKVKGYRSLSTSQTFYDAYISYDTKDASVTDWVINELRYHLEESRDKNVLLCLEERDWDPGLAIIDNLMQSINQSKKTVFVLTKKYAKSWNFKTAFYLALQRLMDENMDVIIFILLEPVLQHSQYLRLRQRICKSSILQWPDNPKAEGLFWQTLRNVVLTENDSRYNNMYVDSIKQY

| pEC50 [1] | pEC50 [2] | Structure (SMILES) |
| --- | --- | --- |
| 8.10 | < 4.00 | CCCN(CCC)C(=O)C1=Cc2ccc(C(=O)Nc3cncc(CCc4ccccc4)c3)cc2N=C(N)C1 [Example 69, 2-Amino-N8-[5-(2-phenylethyl)-3-pyridyl]-N4,N4-dipropyl-3H-1-benzazepine-4,8-dicarboxamide] |
| 7.92 | < 4.00 | CCCN(CCC)C(=O)C1=Cc2ccc(C(=O)Nc3cncc(CCc4ccc(OC)cc4)c3)cc2N=C(N)C1 [Example 70, 2-Amino-N8-[5-[2-(4-methoxyphenyl)ethyl]-3-pyridyl]-N4,N4-dipropyl-3H-1-benzazepine-4,8-dicarboxamide] |
| 7.54 | < 4.00 | CCCN(CCC)C(=O)C1=Cc2ccc(C(=O)Nc3cncc(CCc4ccc(CN)cc4)c3)cc2N=C(N)C1 [Example 71, 2-Amino-N8-[5-[2-[4-(aminomethyl)phenyl]ethyl]-3-pyridyl]-N4,N4-dipropyl-3H-1-benzazepine-4,8-dicarboxamide] |
| 7.60 | < 4.00 | CCCN(CCC)C(=O)C1=Cc2ccc(C(=O)Nc3cncc(CCCCCN)c3)cc2N=C(N)C1 [Example 72, 2-Amino-N8-[5-(5-aminopentyl)-3-pyridyl]-N4,N4-dipropyl-3H-1-benzazepine-4,8-dicarboxamide] |
| 8.00 | < 4.00 | CCCN(CCC)C(=O)C1=Cc2ccc(C(=O)Nc3cncc(CCc4cccc(OC)c4)c3)cc2N=C(N)C1 [Example 73, 2-Amino-N8-[5-[2-(3-methoxyphenyl)ethyl]-3-pyridyl]-N4,N4-dipropyl-3H-1-benzazepine-4,8-dicarboxamide] |
| 7.57 | < 4.00 | CCCN(CCC)C(=O)C1=Cc2ccc(C(=O)Nc3cncc(CCCCCCN)c3)cc2N=C(N)C1 [Example 74, 2-Amino-N8-[5-(6-aminohexyl)-3-pyridyl]-N4,N4-dipropyl-3H-1-benzazepine-4,8-dicarboxamide] |
| 8.00 | < 4.00 | CCCN(CCC)C(=O)C1=Cc2ccc(C(=O)Nc3ccc(CCCN)nc3)cc2N=C(N)C1 [Example 75, 2-Amino-N8-[6-(3-aminopropyl)-3-pyridyl]-N4,N4-dipropyl-3H-1-benzazepine-4,8-dicarboxamide] |
| 7.62 | < 4.00 | CCCN(CCC)C(=O)C1=Cc2ccc(C(=O)Nc3cncc(CCCCN)c3)cc2N=C(N)C1 [Example 76, 2-Amino-N8-[5-(4-aminobutyl)-3-pyridyl]-N4,N4-dipropyl-3H-1-benzazepine-4,8-dicarboxamide] |
| 8.10 | < 4.00 | CCCN(CCC)C(=O)C1=Cc2ccc(C(=O)Nc3ccc(CCCCN)nc3)cc2N=C(N)C1 [Example 77, 2-Amino-N8-[6-(4-aminobutyl)-3-pyridyl]-N4,N4-dipropyl-3H-1-benzazepine-4,8-dicarboxamide] |
| 7.92 | < 4.00 | CCCN(CCC)C(=O)C1=Cc2ccc(C(=O)Nc3cncc(CN(C)C)c3)cc2N=C(N)C1 [Example 78, 2-Amino-N8-[5-[(dimethylamino)methyl]-3-pyridyl]-N4,N4-dipropyl-3H-1-benzazepine-4,8-dicarboxamide] |
| 8.70 | 4.51 | CCCN(CC1CC1)C(=O)C1=Cc2ccc(C(=O)Nc3cncc(OCC)c3)cc2N=C(N)C1 [Example 79, 2-Amino-N4-(cyclopropylmethyl)-N8-(5-ethoxy-3-pyridyl)-N4-propyl-3H-1-benzazepine-4,8-dicarboxamide] |
| 7.77 | < 4.00 | CCCN(CCC)C(=O)C1=Cc2ccc(C(=O)Nc3cncc(CCN)c3)cc2N=C(N)C1 [Example 80, 2-Amino-N8-[5-(2-aminoethyl)-3-pyridyl]-N4,N4-dipropyl-3H-1-benzazepine-4,8-dicarboxamide] |
